Laboratory results from US20070232528A1, “Formulation comprising histone deacetylase inhibitors” (priority 2004, published 2007).
“And” between values parts separate entries of the source, which are not always exact repeats. Equal values may be shown once. Read-outs that look alike come from different tables or passages of the source.

Tests used:
HDAC 1 = target: T1, HDAC 1 (Homo sapiens, UniProt Q13547); experiment: in vitro HDAC assay with recombinant HDAC proteins (Fluor de Lys substrate); format: biochemical; conditions: recombinant protein purified from High 5 insect cells; read-out: IC50 for HDAC 1 (class I)
T1 construct: made in house; host or cells: High5 insect cells
Text: (§1) IC50 values may be calculated from dose-response curves. […] Biochem J. Aug. 15, 2000;350 Pt 1:199-205.

HDAC 6 = HDAC 6 (Homo sapiens, UniProt Q9UBN7); experiment: biochemical
Text: (§2) in vitro HDAC assay for determination of IC50 values: The determination of histone deacetylase activity in recombinant HDAC proteins derived from expression in High5 insect cells is based on the specific deacetylation of an artificial substrate (Fluor de Lys, Biomol). The substrate turn over may be detected and quantified by fluorometry. By addition of a HDAC inhibitor the hydrolysis of the substrate is constrained resulting in a decreased fluorometric signal. IC50 values may be calculated from dose-response curves. The assay is separated in two steps: in the first step the substrate (Fluor de Lys/Biomol KI-104) is hydrolysed by histone deacetylases. In step two HDAC activity is terminated and the fluorophore is activated by the addition of a developer (Developer/Biomol KI-105). […] 25 μl substrate (1:100 dilution in reaction buffer) per well are added to start the reaction. A negative control without histone deacetylase activity and a positive control without HDAC inhibitor are treated likewise. The reaction is stopped after 15-60 min. by adding 50 μl developer (1:20 dilution in reaction buffer). After another 15 min. incubation time at room temperature the fluorescence signal is stable for 60 min and may be detected by a fluorescence reader (excitation filter: 390 nm, emission filter: 460 nm). […]

HDAC 8 (Homo sapiens) = experiment: biochemical
Text: as §2

HDAC class I = target: T2, HDAC class I (Homo sapiens, UniProt Q13547); experiment: in vitro HDAC assay, IC50 stated for the enzyme class; format: biochemical; conditions: class I enzyme inhibition
T2 construct: made in house; host or cells: High5 insect cells
Text: as §1

[1] = test system: PC3 prostate carcinoma cells; experiment: PC-3 mouse xenograft model; format: in vivo
Procedure: 24 athymic Nu/Nu^−/− mice were injected with 1×10^6 PC3 prostate carcinoma cells in 100 μl PBS into the right flank (8 animals per group). Tumors were allowed to grow for 4 days. Animals were treated with PBS (control), 2×200 mg/kg/d or 2×400 mg/kg/d, respectively, from day 5 until day 21. Tumor volumes were measured every 3-4 days.
Mouse Xenograft Model: 24 athymic Nu/Nu^−/− (Harlan) mice were injected with 1×10^6 PC3 prostate carcinoma cells in 100 μl PBS into the right flank (8 animals per group). Tumors were allowed to grow for 4 days. […] Tumor volumes were measured every […].

Colo320DM cell line = experiment: SRB proliferation assay, interval treatment; format: cell-based; conditions: Homo sapiens, COLO 320DM, 1 mM VPA, read-out: growth inhibition
Procedure: (§3) SRB proliferation assay: The reduction in cellular biomass was measured by SRB-assay. For this assay cells were seeded in 96 well culture dishes at densities between 3000 and 8000 cells per well. […] Cells were fixed with cold Trichloracetat (TCA) producing a final TCA concentration of 10%. After 1 hour of incubation at 4° C. the cells were washed five times with water and air dried. Fixed cells were stained for 30 minutes with 0.4% (wt/vol) Sulforhodamine B (SRB) dissolved in 1% acetic acid and washed four times with 1% acetic acid to remove unbound dye. After air drying bound dye was solubilized with 10 mM unbuffered Tris base (pH 10.5) for 5 minutes. Optical densities (OD) were read on a Molecular Devices Versa Max tunable microplate reader at 520-550 nm. Four test wells for each dose-response were set in parallel with 12 control wells per cell line. Measurement of the cell population density at time 0 (T0; the time at which the drug was added) was also made from 12 reference wells of cells fixed with TCA just prior to drug addition to the test plates. Background OD of complete medium with 5% FBS fixed and stained as described above was also determined in 12 separate wells. From the unprocessed OD data from each microtiter plate the background OD measurements (i.e. OD of complete medium plus stain and OD of cells at T0) were subtracted thus giving the reduction of cellular biomass of the cells.

PC-3 cell line = experiment: SRB proliferation assay, interval treatment; format: cell-based; conditions: Homo sapiens, read-out: growth inhibition
Procedure: as §3

HDAC 2 = experiment: Western blot of peripheral blood cells of patients, phase I/II trial; format: in vivo, human; conditions: patients with serum levels above the therapeutic plasma concentration
Procedure: (§4) Blood samples were taken before and 6 h, 24 h as well as 48 h after treatment start.
(§5) Whole cell extracts were prepared by lysis of cells in RIPA buffer plus protease inhibitors for denaturing SDS gel electrophoresis on a 12% denaturing polyacrylamide gel. Acetylated histones H3 and H4 and marker protein HDAC 2 were detected by Western blot analysis using an anti-acetyl Histone H3 antibody (Upstate, #06-942), an anti-acetyl Histone H4 antibody (clone T25; patent application EP 02.021984.6), and an anti-HDAC 2 antibody (SCBT, SC-7899). As an equal loading control PVDV membranes were stained with Coomassie.

Histone H3 and H4 = experiment: as above; format: in vivo, human
Procedure: as §4, §5

Histone H3 in 293T cells = experiment: Western blot of 293T cells treated by release-pattern schemes; format: cell-based
Procedure: Whole cell extracts were prepared by lysis of cells in RIPA buffer plus protease inhibitors for denaturing SDS gel electrophoresis on a 12% denaturing polyacrylamide gel. Acetylated histones H3 were detected by Western blot analysis using an anti-acetylated H3 antibody (Upstate, #06-942).

T2 sequence (Q13547 whole entry): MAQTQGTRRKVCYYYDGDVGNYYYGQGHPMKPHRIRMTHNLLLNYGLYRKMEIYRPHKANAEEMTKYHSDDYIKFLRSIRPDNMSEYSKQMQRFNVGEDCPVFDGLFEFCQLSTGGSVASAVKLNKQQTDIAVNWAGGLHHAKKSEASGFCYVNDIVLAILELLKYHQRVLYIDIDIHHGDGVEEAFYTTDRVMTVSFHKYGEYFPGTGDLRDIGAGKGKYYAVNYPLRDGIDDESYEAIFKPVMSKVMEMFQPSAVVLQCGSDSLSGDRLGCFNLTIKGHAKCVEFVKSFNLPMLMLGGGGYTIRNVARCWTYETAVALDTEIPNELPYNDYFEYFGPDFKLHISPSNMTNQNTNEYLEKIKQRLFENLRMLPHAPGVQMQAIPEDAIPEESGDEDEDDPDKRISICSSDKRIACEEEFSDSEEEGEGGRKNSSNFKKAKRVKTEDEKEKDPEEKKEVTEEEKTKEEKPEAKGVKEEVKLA
T1 sequence (Q13547 whole entry): as above
Sequence of HDAC 6 (Q9UBN7 whole entry): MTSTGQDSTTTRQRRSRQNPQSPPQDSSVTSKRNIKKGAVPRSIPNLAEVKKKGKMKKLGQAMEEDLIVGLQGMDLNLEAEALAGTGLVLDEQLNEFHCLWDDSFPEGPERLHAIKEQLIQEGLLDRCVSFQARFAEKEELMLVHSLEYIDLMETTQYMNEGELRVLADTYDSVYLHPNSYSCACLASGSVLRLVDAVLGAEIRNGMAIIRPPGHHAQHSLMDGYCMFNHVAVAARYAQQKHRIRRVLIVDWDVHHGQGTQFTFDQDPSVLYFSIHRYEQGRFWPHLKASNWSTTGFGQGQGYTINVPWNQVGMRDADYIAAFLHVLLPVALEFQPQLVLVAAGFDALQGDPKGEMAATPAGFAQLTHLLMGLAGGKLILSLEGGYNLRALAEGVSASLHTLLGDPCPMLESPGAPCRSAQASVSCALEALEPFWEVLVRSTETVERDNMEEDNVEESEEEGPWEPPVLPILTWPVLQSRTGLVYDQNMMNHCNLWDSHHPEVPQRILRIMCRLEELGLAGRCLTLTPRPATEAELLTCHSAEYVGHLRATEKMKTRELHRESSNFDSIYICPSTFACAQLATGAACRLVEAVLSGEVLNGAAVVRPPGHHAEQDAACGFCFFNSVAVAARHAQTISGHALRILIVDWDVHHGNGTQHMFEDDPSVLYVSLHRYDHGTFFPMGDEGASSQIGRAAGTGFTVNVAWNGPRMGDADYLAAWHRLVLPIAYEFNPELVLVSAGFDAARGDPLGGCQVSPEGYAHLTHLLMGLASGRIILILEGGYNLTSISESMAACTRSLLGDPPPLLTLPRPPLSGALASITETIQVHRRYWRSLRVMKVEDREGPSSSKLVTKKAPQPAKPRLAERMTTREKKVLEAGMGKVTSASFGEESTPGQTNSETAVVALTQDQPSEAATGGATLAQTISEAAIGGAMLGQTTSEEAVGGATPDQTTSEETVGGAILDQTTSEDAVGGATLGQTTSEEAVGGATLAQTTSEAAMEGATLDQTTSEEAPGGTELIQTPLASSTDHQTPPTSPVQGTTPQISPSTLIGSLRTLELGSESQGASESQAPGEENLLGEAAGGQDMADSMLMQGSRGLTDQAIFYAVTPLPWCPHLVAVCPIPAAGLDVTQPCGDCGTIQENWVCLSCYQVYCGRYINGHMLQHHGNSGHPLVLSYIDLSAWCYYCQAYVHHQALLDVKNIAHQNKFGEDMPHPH
Sequence of HDAC 8 (Homo sapiens) (Q9UBN7 whole entry): as above

Q: How did the IC50 (HDAC 1) turn out when CCCC(CCC)C(=O)O [VPA, 2-propyl-pentanoic acid] was run?
A: Its IC50 is 200 µM and ~200 µM.

Q: What about the IC50 (HDAC 6) of the same compound?
A: The IC50 was 1100 µM.

Q: And the IC50 (HDAC 8 (Homo sapiens))?
A: Its IC50 is about 1100 µM.

Q: And the IC50 (HDAC class I)?
A: Its IC50 is ~200 µM and 200 µM.

Q: And the anti-tumoral effect ([1]; 200 mg/kg/d twice daily, day 5 until day 21)?
A: Its anti-tumoral effect is “no anti-tumoral effect”.

Q: And the “PC-3 tumor volume reduction” value ([1]; 400 mg/kg/d twice daily, day 5 until day 21, compared to PBS control)?
A: The value was over 25%.

Q: And the inhibition at 1000 µM (Colo320DM cell line; 2×8 hours exposure, 40 h treatment free interval ("8 h d"))?
A: Its inhibition at 1000 µM is 27%.

Q: What about the inhibition at 1000 µM (Colo320DM cell line; 2×20 hours exposure, 26 h treatment free interval ("20 h d")) of the same compound?
A: Its inhibition at 1000 µM is 57%.

Q: And the inhibition at 1000 µM (Colo320DM cell line; 66 h, continuous exposure 66 h)?
A: The inhibition at 1000 µM was 80%.

Q: What about the inhibition at 1000 µM (PC-3 cell line; PC-3, 66 h, PC3, 1 mM VPA, continuous exposure 66 h) of the same compound?
A: Its inhibition at 1000 µM is 57%.

Q: What about the inhibition at 1000 µM (PC-3 cell line; PC-3, PC3, 1 mM VPA, 2×8 hours exposure, 40 h treatment free interval ("8 h d")) of the same compound?
A: Its inhibition at 1000 µM is 26%.

Q: What about the inhibition at 1000 µM (PC-3 cell line; PC-3, PC3, 1 mM VPA, 2×20 hours exposure, 26 h treatment free interval ("20 h d")) of the same compound?
A: Its inhibition at 1000 µM is 43%.

Q: And the “regulation of the marker protein HDAC 2” value (HDAC 2)?
A: Its value is “down regulation”.

Q: And the “correlation of VPA serum peak levels with induction of histone hyperacetylation” value (Histone H3 and H4; peripheral blood cells before and 6 h, 24 h, 48 h after treatment start, intravenous VPA)?
A: Its value is “clear correlation”.

Q: And the “histone H3 and H4 hyperacetylation” value (Histone H3 and H4; peripheral blood cells, patients with serum levels above the therapeutic plasma concentration)?
A: The value was “could be detected”.

Q: What about the “degree of histone hyperacetylation” value (Histone H3 in 293T cells; VPA above IC50 for class I HDAC, exposure 6 h, 15 h, 24 h) of the same compound?
A: The value was “strongly enhanced when the period of exposure is prolonged”.

Q: What about the “degree of histone hyperacetylation induction, "fast release" or "slow release" exposure each on their own compared with bi-phasic PEAC exposure” value (Histone H3 in 293T cells; Western blot) of the same compound?
A: The value was “less effective”.
